Literature values as cited in paper PMC3918245 (ChemMedChem, 2013).

Tested on: deep-pocket MMPs
Details: semi-selective inhibition; specific inhibitors of MMP-8 and MMP-12

For O=C(NCc1ccc(-c2ccccc2)cc1)c1cccc(=O)n1O [1,2-HOPO-2], which “IC50 against deep-pocket MMPs” value is on record?
The value was “low nanomolar range”.
